The values that follow come from patent US11834401B2, “Treating and preventing diseases by modulating cell mechanics” (THE JOHNS HOPKINS UNIVERSITY, priority 2013, dated 2023).

One test deals with ASPC-1 cells. Nature of the test: Micropipette aspiration creep test. The format is cell-based, human. As to conditions: 500 nM, 1 hr, 0.25 nN/μm^2. How it is done:
(§1) The instrumental and experimental setups have been previously described (Effler J C, et al., 2006; Kee Y-S, et al., 2013). Micropipette aspiration assays were all carried out in growth media with 0.1% DMSO. For cortical tension measurements of Dictyostelium cells, pressure was applied to the cell cortex with a micropipette (2-3 m radius, Rp) to the equilibrium pressure (ΔP) where the length of the cell inside the pipette (Lp) was equal to Rp. The effective cortical tension (Teff) was calculated by applying the Young-Laplace equation: ΔP=2Teff(1/Rp-1/Rc), where Rc is the radius of the cell and ΔP is the equilibrium pressure when Lp=Rp (Derganc J, et al., 2000; Octtaviani E, et al., 2006). For creep tests on mammalian strains, a constant aspiration stress was applied over 60 s. The micropipette radius was 3.5-4.5 m. For quantification, the Lp/Rp ratio values was measured every two seconds and plotted as a function of time. A10.7 and HEK293 cells could only be aspirated at a low pressure range (0.15 nN/μm^2), while HPDE, ASPC-1, and HL-60 cells could be aspirated at higher pressure ranges (0.25 nN/μm^2) because they were stiffer.

The subject of the next test is HEK293 cells. Nature of the test: Micropipette aspiration creep test. The format is cell-based, human. As to conditions: 500 nM, 1 hr, 0.15 nN/μm^2. How it is done: as §1
The subject of test [1] is myosin IIA (phosphor-Ser1943). Nature of the test: Western blot of phospho-myosin IIA. The format is cell-based, human. As to conditions: HPDE or ASPC-1 cells. How it is done: Pellet was resuspended in 100 μl lysis buffer minus Triton X-100, and both pellet and supernatant fractions were heated to 100° C. for 3 min with RNaseA. Samples were incubated at 37° C. for 30 min and then heated to 100° C. in sample buffer for 5 min. Samples were loaded on a 15% SDS-polyacrylamide gel. Western blot analyses of phospho-myosin IIA was performed on whole cell lysates of cells treated as above in lysate buffer with 10 mM NaF.

Test [2] deals with T1, myosin II (Dictyostelium discoideum, UniProt P08799, T1823A/T1833A/T2029A).
T1 construct: expressed in transfected cells; host or cells: Dictyostelium discoideum myoII null cells rescued with GFP-myosin II
Nature of the test: Myosin II cortical localization by SIM, TIRF and confocal imaging. The format is cell-based. As to conditions: myoII null cells, 500 nM, 10 minutes post-treatment. How it is done: (§2) Micropipette aspiration was used for cortical tension and creep response measurements. Confocal imaging was performed on a Zeiss 510 Meta with a 63× (numerical aperture [NA] 1.4) objective (Carl Zeiss, Jena, Germany). Epifluorescence and TIRF imaging was performed in a 22° C. temperature controlled room with an Olympus IX81 microscope using a 40× (NA 1.3) or 60× (NA 1.49) objective and a 1.4× optovar (Olympus, Center Valley, Pa.), as previously described. Image analysis was performed with ImageJ (rsb.info.nih.gov/ij).
(§3) Imaging conditions during primary screen are described above. All other image analysis was performed as previously described (Kee Y S, et al., 2012). Cells were transferred from Petri dishes (with 0.1% DMSO incubation in growth media of 4 hrs) to imaging chambers and allowed to adhere for 20 min in growth media with 0.1% DMSO. After the cells adhered, the growth media was replaced with 2-(N-morpholino)ethanesulfonic acid (MES) starvation buffer (50 mM MES, pH 6.8, 2 mM MgCl2, 0.2 mM CaCl2) with 0.1% DMS. Confocal imaging was performed on aZeiss 510 Meta with a 63× (numerical aperture [NA] 1.4) objective (Carl Zeiss, Jena, Germany). Epifluorescence and TIR imaging was performed in a 22° C. temperature controlled room with an Olympus IX81 microscope using a 40× (NA 1.3) or 60× (NA […]) objective and a 1.4× optovar (Olympus, Center Valley, Pa.), as previously described. Image analysis was performed with ImageJ (rsb.info.nih.gov/ij). Many data sets were independently analyzed by multiple investigators.

The target of test [3] is T2, myosin II (Dictyostelium discoideum, UniProt P08799, T1823D/T1833D/T2029D).
T2 construct: expressed in transfected cells; host or cells: Dictyostelium discoideum myoII null cells rescued with GFP-myosin II
The description is as above. The format is cell-based. As to conditions: myoII null cells, 500 nM, 10 minutes post-treatment. How it is done:
as §2, §3

Test [4] concerns myosin II. The test is described as above. The format is cell-based, Dictyostelium discoideum. The note with it: myoII null cells. How it is done:
as §2, §3

Test [5] addresses T3, myosin II (Dictyostelium discoideum, UniProt P08799, S456L).
T3 construct: expressed in transfected cells; host or cells: Dictyostelium discoideum myoII null cells rescued with GFP-myosin II
The test is described as above. The note with it: myoII null cells, time course beyond one hour. The format is cell-based. How it is done: as §2, §3

The structures appear in SMILES notation.

T1 sequence (P08799 whole entry T1823A/T1833A/T2029A): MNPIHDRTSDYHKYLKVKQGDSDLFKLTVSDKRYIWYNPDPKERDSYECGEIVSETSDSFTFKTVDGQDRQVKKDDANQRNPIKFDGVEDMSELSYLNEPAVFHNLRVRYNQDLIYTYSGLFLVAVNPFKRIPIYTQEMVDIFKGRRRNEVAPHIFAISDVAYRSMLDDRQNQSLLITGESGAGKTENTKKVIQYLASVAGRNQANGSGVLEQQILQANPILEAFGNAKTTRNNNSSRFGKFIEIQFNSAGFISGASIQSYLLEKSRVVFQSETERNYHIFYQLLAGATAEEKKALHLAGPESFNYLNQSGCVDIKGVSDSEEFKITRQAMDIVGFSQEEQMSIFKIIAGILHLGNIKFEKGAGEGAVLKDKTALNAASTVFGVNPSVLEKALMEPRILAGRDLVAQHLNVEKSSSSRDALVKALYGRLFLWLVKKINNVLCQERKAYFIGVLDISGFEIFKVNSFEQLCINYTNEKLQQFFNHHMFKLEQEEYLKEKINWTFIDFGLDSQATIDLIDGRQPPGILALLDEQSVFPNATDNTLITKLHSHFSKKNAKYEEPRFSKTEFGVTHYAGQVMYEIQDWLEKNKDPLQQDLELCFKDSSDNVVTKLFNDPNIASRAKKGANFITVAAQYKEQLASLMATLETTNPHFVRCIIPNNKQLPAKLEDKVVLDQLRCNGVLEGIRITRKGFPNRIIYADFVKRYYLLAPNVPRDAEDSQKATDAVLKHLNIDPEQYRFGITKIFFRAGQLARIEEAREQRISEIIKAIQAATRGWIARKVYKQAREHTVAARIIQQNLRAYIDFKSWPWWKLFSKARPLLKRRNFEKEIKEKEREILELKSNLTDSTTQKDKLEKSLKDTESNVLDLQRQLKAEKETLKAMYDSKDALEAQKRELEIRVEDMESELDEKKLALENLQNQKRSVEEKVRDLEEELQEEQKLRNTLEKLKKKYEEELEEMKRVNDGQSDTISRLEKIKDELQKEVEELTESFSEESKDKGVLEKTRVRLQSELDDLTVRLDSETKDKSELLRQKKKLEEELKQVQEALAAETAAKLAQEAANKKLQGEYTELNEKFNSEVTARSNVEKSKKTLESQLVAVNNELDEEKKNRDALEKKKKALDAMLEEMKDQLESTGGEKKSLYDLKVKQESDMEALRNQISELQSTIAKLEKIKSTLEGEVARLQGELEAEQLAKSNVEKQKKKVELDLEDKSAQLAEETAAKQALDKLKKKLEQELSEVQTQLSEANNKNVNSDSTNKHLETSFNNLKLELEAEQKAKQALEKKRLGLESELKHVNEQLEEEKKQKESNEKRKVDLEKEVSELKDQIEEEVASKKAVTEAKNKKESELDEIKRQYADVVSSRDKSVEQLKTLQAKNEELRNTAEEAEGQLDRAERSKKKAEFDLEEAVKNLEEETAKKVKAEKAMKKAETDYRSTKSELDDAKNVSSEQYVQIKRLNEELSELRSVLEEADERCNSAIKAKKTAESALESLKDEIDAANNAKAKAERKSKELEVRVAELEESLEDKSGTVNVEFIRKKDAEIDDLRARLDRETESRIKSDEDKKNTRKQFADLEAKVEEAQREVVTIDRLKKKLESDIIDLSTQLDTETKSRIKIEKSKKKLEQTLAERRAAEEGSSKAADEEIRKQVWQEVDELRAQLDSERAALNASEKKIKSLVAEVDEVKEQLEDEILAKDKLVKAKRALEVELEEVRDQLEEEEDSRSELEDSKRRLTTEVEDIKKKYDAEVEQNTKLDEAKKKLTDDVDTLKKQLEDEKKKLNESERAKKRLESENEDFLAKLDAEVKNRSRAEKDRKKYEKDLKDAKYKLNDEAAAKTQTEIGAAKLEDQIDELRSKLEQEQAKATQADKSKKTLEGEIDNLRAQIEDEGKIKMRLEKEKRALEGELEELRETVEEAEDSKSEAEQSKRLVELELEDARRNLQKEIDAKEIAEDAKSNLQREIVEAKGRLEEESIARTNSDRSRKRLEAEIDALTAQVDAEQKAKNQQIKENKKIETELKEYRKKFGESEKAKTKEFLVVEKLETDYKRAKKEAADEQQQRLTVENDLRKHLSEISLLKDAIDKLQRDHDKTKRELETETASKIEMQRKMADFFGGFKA
T3 sequence (P08799 whole entry S456L): as the sequence (P08799 whole entry T1823A/T1833A/T2029A) above, with S456L, A1823T, A1833T, A2029T counted along it
T2 sequence (P08799 whole entry T1823D/T1833D/T2029D): as the sequence (P08799 whole entry T1823A/T1833A/T2029A) above, with A1823D, A1833D, A2029D counted along it

With `CC(=O)c1ccc(O)cc1` [4-HAP, 4-hydroxyacetophenone], the “deformability in creep test” value in the test on ASPC-1 cells was “stiffens ASPC-1 cells, shifting them towards HPDE-like mechanics”; in the test with HEK293 cells, “stiffens the soft HEK293 cells”. Further, the “myosin IIA phosphorylation (phosphor-Ser1943)” value in test [1] was “little effect on myosin IIA phosphorylation”. Moreover, the “filament formation, GFP-3XAla myosin” value on myosin II [2] is “increasing in filament length and intensity”. Also, at myosin II [3], the “filament formation, GFP-3XAsp myosin” value was “generating more short filaments”. Besides, the “myosin accumulation, GFP-S1 motor domain” value with myosin II [4] is recorded as “did not show an accumulation response”. Besides, on myosin II [5], the “myosin accumulation, GFP-S456L myosin” value was “did not show a response to 4-HAP”.
